In patent US20230357222A1, “SELECTIVE SMALL MOLECULE DEGRADERS OF CEREBLON” (DANA-FARBER CANCER INSTITUTE, INC., priority 2020, published 2023):

Assays:
Assay type in all cases: cell-based
cereblon (CRBN) [1] = biological target: T1, cereblon (CRBN) (Homo sapiens, UniProt Q96SW2); assay: CRBN degradation in MM1.s cells, 4-h dose titration, immunoblot; conditions: 4-h dose titration treatment
T1 construct: endogenous in cells; host or cells: MM1.s cells (also HEK293T, MOLT4, SK-N-DZ and Kelly cells for compound 1)
T1 sequence (Q96SW2 whole entry): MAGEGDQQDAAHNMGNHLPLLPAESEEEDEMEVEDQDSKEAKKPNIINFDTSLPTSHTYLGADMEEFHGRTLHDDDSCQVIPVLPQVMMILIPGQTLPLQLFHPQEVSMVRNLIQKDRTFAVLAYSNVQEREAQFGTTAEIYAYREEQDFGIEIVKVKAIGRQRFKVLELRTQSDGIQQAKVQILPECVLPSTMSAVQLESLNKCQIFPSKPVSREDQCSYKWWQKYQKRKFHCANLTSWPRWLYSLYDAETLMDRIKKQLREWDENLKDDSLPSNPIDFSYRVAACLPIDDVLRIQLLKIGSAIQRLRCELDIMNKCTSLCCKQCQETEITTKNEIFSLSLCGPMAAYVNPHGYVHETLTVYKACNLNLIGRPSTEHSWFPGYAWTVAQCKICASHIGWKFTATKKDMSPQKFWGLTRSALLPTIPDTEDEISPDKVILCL
Experimental: (§1) MM1.S cells were generously provided by James Bradner (Dana-Farber Cancer Institute (DFCI), Boston, MA). MM1.S cells were cultured in Roswell Park Memorial Institute (RPMI)-1640 media containing L-glutamine, supplemented with 10% fetal bovine serum (FBS) and 1% penicillin/streptomycin. Mycoplasma testing was performed on a monthly basis and all lines were negative.
(§2) Cells were washed with ice cold phosphate-buffered saline (PBS) before being lysed with Cell Lysis Buffer (Cell Signaling Technology®) supplemented with protease and phosphatase inhibitor cocktails (Roche®) at 4° C. for 15 minutes. The cell lysate was vortexed before being centrifuged at 14,000×g for 20 min at 4° C. Protein in cell lysate was quantified by bicinchoninic acid (BCA) assay (Pierce™). Primary antibodies used in this study include CDK9 (Cell Signaling Technology®, 2316S), CKlα (Abcam®, ab206652), CRBN (Novus Biologicals®, NBP1-91810), eRF3/GSPT1 (Abcam®, ab49878), IKZF1 (Ikaros) (Cell Signaling Technology®, 5443S), IKZF3 (Aiolos) (Cell Signaling Technology®, 15103S), VHL (Cell Signaling Technology®, 68547S), and vinculin (Abcam®, ab130007). Blot quantification was performed using Image Studio 4.0 software, normalizing to loading controls.

cereblon (CRBN) [2] = biological target: T1, cereblon (CRBN); assay: CRBN degradation in MM1.s cells, time course experiment, immunoblot; conditions: 50-nM dose
Experimental: as §1, §2
The experimental protocol is set forth above in Example 7.

cereblon (CRBN) [3] = biological target: T1, cereblon (CRBN); assay: Proteomic analysis (TMT LC-MS3) of protein abundance in cells; conditions: MM1.s cells, 50 nM, 6 hours
Experimental: MM1.s cells were treated with DMSO or 50 nM of bispecific compound 1 or 6 in biological triplicates for 6 hours and cells harvested by centrifugation. Lysis buffer (8 M Urea, 50 mM NaCl, 50 mM 4-(2hydroxyethyl)-1-piperazineethanesulfonic acid (EPPS) pH 8.5, Protease and Phosphatase inhibitors from Roche®) was added to the cell pellets and homogenized by 20 passes through a 21 gauge (1.25 in. long) needle to achieve a cell lysate with a protein concentration between 1-4 mg mL-1. A micro-BCA assay (Pierce™) was used to determine the final protein concentration in the cell lysate. 200 μg of protein for each sample were reduced and alkylated as described in Donovan et al., Elife 7:e38430 (2018).
Proteins were precipitated using methanol/chloroform. In brief, four volumes of methanol were added to the cell lysate, followed by one volume of chloroform, and finally three volumes of water. […]
Anhydrous ACN was added to each peptide sample to a final concentration of 30% v/v, and labeling was induced with the addition of TMT reagent to each sample at a ratio of 1:4 peptide:TMT label. […] The sample channels were combined at a 1:1:1:1:1:1:1:1:1:1 ratio, desalted using C18 solid phase extraction cartridges (Waters®) and analyzed by LC-MS for channel ratio comparison. Samples were then combined using the adjusted volumes determined in the channel ratio analysis and dried down in a speed vacuum. […]

| Compound | CRBN degrader potency and selectivity (in words) (cereblon (CRBN) [1]) | concentration at which virtually complete degradation of CRBN is seen (cereblon (CRBN) [1]) | earliest time at which CRBN degradation is seen after treatment (cereblon (CRBN) [2]) [h] | proteins significantly degraded by proteomic analysis (selectivity) (cereblon (CRBN) [3]) |
| --- | --- | --- | --- | --- |
| Cc1ncsc1-c1ccc([C@H](C)NC(=O)[C@@H]2C[C@@H](O)CN2C(=O)[C@@H](NC(=O)CCCCCCCCCCOc2cccc3c2C(=O)N(C2CCC(=O)NC2=O)C3=O)C(C)(C)C)cc1 (stereo partly drawn) [Compound 6, (2S,4R)-1-((2S)-2-(11-((2-(2,6-Dioxopiperidin-3-Yl)-1,3-Dioxoisoindolin-4-Yl)Oxy)Undecanamido)-3,3-Dimethylbutanoyl)-4-Hydroxy-N-((S)-1-(4-(4-Methylthiazol-5-Yl)Phenyl)Ethyl)Pyrrolidine-2-Carboxamide] | highly potent and selective degraders of CRBN | around 50 nM | 1 | only CRBN was significantly degraded |
| Cc1ncsc1-c1ccc(CNC(=O)[C@@H]2C[C@@H](O)CN2C(=O)[C@@H](NC(=O)CCCCCCCCCCOc2cccc3c2C(=O)N(C2CCC(=O)NC2=O)C3=O)C(C)(C)C)cc1 (stereo partly drawn) [Compound 1, (2S,4R)-1-((2S)-2-(11-((2-(2,6-dioxopiperidin-3-yl)-1,3-dioxoisoindolin-4-yl)oxy)undecanamido)-3,3-dimethylbutanoyl)-4-hydroxy-N-(4-(4-methylthiazol-5-yl)benzyl)pyrrolidine-2-carboxamide] | highly potent and selective degraders of CRBN | around 50 nM | 1 | only CRBN was significantly degraded |
